Read-outs that look alike come from different tables or passages of the source.
How the values were obtained:
[1] = target: T1, human VMAT2 (Homo sapiens, UniProt Q05940); assay: cell-based; conditions: for VMAT2 inhibitor strength (in words): short-term exposure, up to 100 μM; for Effect on FFN206 uptake / vesicular loading: tested at 0.01, 0.1, 1, 10 and 100 μM
[2] = 100 nM rotenone; after 48 hours; from mitochondrial complex I inhibition; cited from earlier work
[3] = target: T1, human VMAT2; assay: Real-time uptake of FFN206 with confocal microscopy in HEK+VMAT2 cells; assay type: cell-based; conditions: 20 μM FFN206; one-way ANOVA, p <0.0001 vs HEK+VMAT2

T1 sequence (Q05940 whole entry): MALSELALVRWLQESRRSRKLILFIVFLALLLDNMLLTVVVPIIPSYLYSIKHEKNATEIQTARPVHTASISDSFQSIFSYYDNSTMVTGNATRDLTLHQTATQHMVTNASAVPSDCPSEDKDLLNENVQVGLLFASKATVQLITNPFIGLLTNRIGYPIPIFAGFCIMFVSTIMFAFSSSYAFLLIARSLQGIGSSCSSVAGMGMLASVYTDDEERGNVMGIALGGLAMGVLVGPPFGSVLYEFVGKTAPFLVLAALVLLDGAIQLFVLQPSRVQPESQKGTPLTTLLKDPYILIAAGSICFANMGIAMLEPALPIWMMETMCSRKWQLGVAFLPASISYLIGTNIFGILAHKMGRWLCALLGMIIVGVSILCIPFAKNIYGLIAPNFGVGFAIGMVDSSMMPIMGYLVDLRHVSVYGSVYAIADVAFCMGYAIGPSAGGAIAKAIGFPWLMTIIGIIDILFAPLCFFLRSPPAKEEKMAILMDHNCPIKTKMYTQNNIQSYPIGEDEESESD

O=S(=O)(O)C(F)(F)C(F)(F)C(F)(F)C(F)(F)C(F)(F)C(F)(F)C(F)(F)C(F)(F)F [PFOS, perfluorooctanesulfonic acid]
VMAT2 inhibitor strength (in words) ([1]; HEK+VMAT2 cells): weak inhibitors of VMAT2
Effect on FFN206 uptake / vesicular loading ([1]; HEK+VMAT2 cells): did not show impairment of vesicular loading

COC(=O)C(c1ccccc1)C1CCCCN1 (centres unmarked) [methylphenidate, reference compound]
IC50 [1]: 94.3 µM

hexabromocyclododecane
VMAT2 inhibitor strength (in words) ([1]; HEK+VMAT2 cells): weak inhibitors of VMAT2
Effect on FFN206 uptake / vesicular loading ([1]; HEK+VMAT2 cells): did not show impairment of vesicular loading

C=C(C)[C@H]1Cc2c(ccc3c2O[C@@H]2COc4cc(OC)c(OC)cc4[C@@H]2C3=O)O1 [rotenone]
Concentration at which a reduction in VMAT2 function was detected ([1]; HEK+VMAT2 cells, 90 minutes total exposure): 100 µM
Effect on FFN206 uptake / vesicular loading ([1]; HEK+VMAT2 cells): minor decrease in FFN206 uptake at the highest concentration
Cell death [2]: 70–80%

CCOP(=S)(OCC)Oc1nc(Cl)c(Cl)cc1Cl [chlorpyrifos]
Effect on FFN206 uptake / vesicular loading ([1]; HEK+VMAT2 cells): minor decrease in FFN206 uptake at the highest concentration

CN[C@@H](C)Cc1ccccc1 [methamphetamine, reference compound]
IC50 [1]: 2.4 µM
Concentration showing essentially complete / total inhibition of VMAT2 ([1]; HEK+VMAT2 cells, dose response, 1 μM FFN206): ≤ 100 µM

C[n+]1ccc(-c2cc[n+](C)cc2)cc1 [paraquat]
IC50 [1]: 12.4 µM

CO/C1=C\C(C)=C\[C@@H](C)[C@@H](O)[C@@H](C)C/C(C)=C/C=C/[C@H](OC)[C@@H]([C@@H](C)[C@@H](O)[C@H](C)[C@@]2(O)C[C@@H](O)[C@H](C)[C@@H](C(C)C)O2)OC1=O [bafilomycin, reference compound]
FFN206 fluorescence in final 20 seconds of 1000 seconds uptake vs HEK+VMAT2 [3]: decreased FFN206 fluorescence
Effect on FFN206 fluorescence ([1]; HEK+VMAT2 cells, 10 μM tetrabenazine, bafilomycin data not shown): depleted FFN206 fluorescence

COc1cc2c(cc1OC)C1CC(=O)C(CC(C)C)CN1CC2 (centres unmarked) [tetrabenazine, reference compound]
FFN206 fluorescence in final 20 seconds of 1000 seconds uptake vs HEK+VMAT2 [3]: significant differences
Concentration showing essentially complete / total inhibition of VMAT2 [1]: 1 µM
Effect on FFN206 fluorescence [1]: almost total loss of FFN206 fluorescence

Source: paper PMC8131219 (Chemical research in toxicology, 2020)
